Test results from DBAASP.
≈ marks a conversion by molar mass, not a printed value. Blank lines part the entries; values can stand above or below the molecule they belong to.

Key:
Experiment in all cases: ≥ marks a high value that may be exact or a test limit, other limits are often not marked, values filed in µg/mL are converted to µM
[1] = test system: Candida albicans NCYC 1467
[2] = test system: Enterococcus faecalis NCTC 12697
[3] = test system: Escherichia coli NCTC 10418
[4] = test system: Pseudomonas aeruginosa ATCC 27853
[5] = test system: Staphylococcus aureus NCTC 10788
[6] = test system: Staphylococcus aureus NCTC 12493
[7] = test system: Acinetobacter baumannii ATCC 17978D-5
[8] = test system: Enterococcus faecium ATCC 700221
[9] = test system: Klebsiella aerogenes ATCC 13048
[10] = test system: Pseudomonas aeruginosa ATCC 19660
[11] = test system: Staphylococcus aureus ATCC 33591
[12] = test system: Staphylococcus epidermidis ATCC 51625
[13] = test system: Streptococcus pneumoniae ATCC 49619
[14] = test system: Escherichia coli ATCC 25922
[15] = test system: Pseudomonas aeruginosa 21328
[16] = test system: Pseudomonas aeruginosa 25349
[17] = test system: Pseudomonas aeruginosa CICC 10419
[18] = test system: Pseudomonas aeruginosa CICC 11411
[19] = test system: Pseudomonas aeruginosa CICC 11421
[20] = test system: Pseudomonas aeruginosa CICC 11431
[21] = test system: Pseudomonas aeruginosa CICC 21625
[22] = test system: Pseudomonas aeruginosa CICC 21630
[23] = test system: Staphylococcus aureus ATCC 29213
[24] = test system: Acinetobacter baumannii ATCC 17978
Acinetobacter baumannii = test system: Acinetobacter baumannii
Candida albicans 17-88 = test system: Candida albicans 17-88
[25] = test system: Candida albicans NRRL Y-326
[26] = test system: Candida albicans NRRL Y-6359
Candida albicans = test system: Candida albicans
Candida dubliniensis = test system: Candida dubliniensis
Candida glabrata = test system: Candida glabrata
Candida krusei = test system: Candida krusei
[27] = test system: Candida parapsilosis NRRL Y-1761
[28] = test system: Candida parapsilosis NRRL Y-1763
Candida parapsilosis = test system: Candida parapsilosis
Candida tropicalis = test system: Candida tropicalis
[29] = test system: Cutibacterium acnes ATCC 11827
[30] = test system: Cutibacterium acnes ATCC 6919
Cutibacterium acnes = test system: Cutibacterium acnes
Debaryomyces hansenii = test system: Debaryomyces hansenii
Enterobacter cloacae = test system: Enterobacter cloacae
[31] = test system: Klebsiella pneumoniae ATCC 10031
Klebsiella pneumoniae = test system: Klebsiella pneumoniae
Kluyveromyces lactis = test system: Kluyveromyces lactis
Pseudomonas aeruginosa = test system: Pseudomonas aeruginosa
[32] = test system: Staphylococcus aureus ATCC 33592
Staphylococcus aureus MR = test system: Staphylococcus aureus MR
Staphylococcus aureus = test system: Staphylococcus aureus
[33] = test system: Streptococcus mutans ATCC UA159

MIC [24]: 7.47 µM (≈ 16 µg/mL)
MIC (Acinetobacter baumannii): 3.74 µM (≈ 7.98 µg/mL)
MIC (Candida albicans 17-88): 15 µM (≈ 32 µg/mL)
MIC [25]: 7.47 µM (≈ 16 µg/mL)
MIC [26]: 1.87 µM (≈ 3.99 µg/mL)
MIC (Candida albicans): 10.6 µM (≈ 22.7 µg/mL)
MIC (Candida dubliniensis): 7.5 µM (≈ 16 µg/mL)
MIC (Candida glabrata): 15 µM (≈ 32 µg/mL)
MIC (Candida krusei): 10.6 µM (≈ 22.7 µg/mL)
MIC [27]: 7.47 µM (≈ 16 µg/mL)
MIC [28]: 0.934 µM (≈ 2 µg/mL)
MIC (Candida parapsilosis): 15 µM (≈ 32 µg/mL)
MIC (Candida tropicalis): 2.65 µM (≈ 5.66 µg/mL)
MIC [29]: 3.74 µM (≈ 7.98 µg/mL)
MIC [30]: 3.74 µM (≈ 7.98 µg/mL)
MIC (Cutibacterium acnes): 1.87 µM (≈ 3.99 µg/mL)
MIC (Debaryomyces hansenii): 7.5 µM (≈ 16 µg/mL)
MIC (Enterobacter cloacae): 3.74 µM (≈ 7.98 µg/mL)
MIC [31]: 3.74 µM (≈ 7.98 µg/mL)
MIC (Klebsiella pneumoniae): 2.64 µM (≈ 5.64 µg/mL)
MIC (Kluyveromyces lactis): 3.7 µM (≈ 7.9 µg/mL)
MIC [10]: 1.87 µM (≈ 3.99 µg/mL)
MIC [4]: 1.87 µM (≈ 3.99 µg/mL)
MIC (Pseudomonas aeruginosa): 1.87 µM (≈ 3.99 µg/mL)
MIC [32]: 1.87 µM (≈ 3.99 µg/mL)
MIC (Staphylococcus aureus MR): 1.87 µM (≈ 3.99 µg/mL)
MIC (Staphylococcus aureus): 2.64 µM (≈ 5.64 µg/mL)
MIC [12]: 3.74 µM (≈ 7.98 µg/mL)
Structure (SMILES): CC[C@H](C)[C@@H]1NC(=O)CNC(=O)[C@H](CCCCN)NC(=O)[C@H](Cc2ccc(O)cc2)NC(=O)[C@@H]2CSSC[C@H](NC1=O)C(=O)N[C@@H](Cc1ccccc1)C(=O)N[C@@H](CCCCN)C(=O)N[C@@H](CCCCN)C(=O)N[C@H](C(=O)N[C@@H](CCCCN)C(N)=O)CSSC[C@H](NC(=O)[C@H](Cc1ccccc1)NC(=O)[C@@H](N)CCCN=C(N)N)C(=O)N[C@@H](Cc1c[nH]c3ccccc13)C(=O)N[C@@H](CCCCN)C(=O)N[C@@H](C(C)C)C(=O)N2 [RFCWKVCYKGICFKKCK]

MIC [33]: 13.5 µM (≈ 32 µg/mL)
Structure (SMILES): CC[C@H](C)[C@H](NC(=O)[C@H](CCCCN)NC(=O)[C@H](CCCN=C(N)N)NC(=O)[C@@H](NC(=O)[C@@H](N)Cc1ccc(O)cc1)[C@@H](C)CC)C(=O)N[C@@H](CCCN=C(N)N)C(=O)N[C@@H](CCCN=C(N)N)C(=O)N[C@@H](Cc1ccccc1)C(=O)N[C@@H](Cc1ccccc1)C(=O)N[C@@H](CCCCN)C(=O)N[C@H](C(=O)N[C@@H](CC(C)C)C(=O)N[C@@H](CC(N)=O)C(=O)N[C@@H](CCCCN)C(=O)N[C@@H](CC(N)=O)C(=O)N[C@@H](CC(C)C)C(=O)N[C@@H](CCCCN)C(=O)N[C@@H](CCCCN)C(N)=O)[C@@H](C)O [YIRKIRRFFKTLNKNLKK]

More lines, now with the values behind:

Structure (SMILES): CSCC[C@H](NC(=O)[C@H](CC(=O)O)NC(=O)[C@@H](NC(=O)[C@@H](NC(=O)[C@H](C)NC(=O)[C@H](CC(N)=O)NC(=O)[C@H](CC(C)C)NC(=O)[C@H](C)NC(=O)[C@H](C)NC(=O)[C@H](CCCCN)NC(=O)CNC(=O)[C@H](C)NC(=O)[C@H](C)NC(=O)[C@H](CCCCN)NC(=O)CNC(=O)[C@@H](NC(=O)[C@H](Cc1cnc[nH]1)NC(=O)[C@H](CCCCN)NC(=O)[C@H](CC(C)C)NC(=O)[C@H](CC(C)C)NC(=O)[C@@H](NC(=O)[C@H](CCCCN)NC(=O)[C@H](Cc1c[nH]c2ccccc12)NC(=O)[C@H](CC(C)C)NC(=O)[C@H](C)N)[C@@H](C)O)C(C)C)C(C)C)[C@@H](C)O)C(=O)N[C@H](C(=O)N[C@@H](CC(N)=O)C(=O)N[C@@H](CCC(N)=O)C(N)=O)C(C)C [ALWKTLLKHVGKAAGKAALNAVTDMVNQ]
MIC [1]: 4 µM (≈ 11.8 µg/mL)
MIC [2]: ≥ 32 µM
MIC [3]: 8 µM (≈ 23.6 µg/mL)
MIC [4]: 16 µM (≈ 47.2 µg/mL)
MIC [5]: 4 µM (≈ 11.8 µg/mL)
MIC [6]: 8 µM (≈ 23.6 µg/mL)

Structure (SMILES): C[C@H](NC(=O)[C@H](Cc1ccccc1)NC(=O)CNC(=O)[C@@H]1CCCN1C(=O)[C@@H](N)CS)C(=O)N[C@@H](CCCCN)C(=O)N[C@@H](CCCCN)C(=O)N[C@@H](Cc1ccccc1)C(=O)N[C@@H](C)C(=O)N[C@@H](CCCCN)C(=O)N[C@@H](CCCCN)C(=O)N[C@@H](Cc1ccccc1)C(=O)N[C@@H](CCCCN)C(=O)N[C@@H](CCCCN)C(=O)N[C@@H](Cc1ccccc1)C(=O)N[C@@H](C)C(=O)N[C@@H](CCCCN)C(=O)N[C@@H](CCCCN)C(=O)N[C@@H](Cc1ccccc1)C(=O)N[C@@H](C)C(=O)N[C@@H](CCCCN)C(=O)N[C@@H](Cc1ccccc1)C(=O)N[C@@H](C)C(=O)N[C@@H](Cc1ccccc1)C(=O)N[C@@H](C)C(=O)N[C@@H](Cc1ccccc1)C(=O)O [CPGFAKKFAKKFKKFAKKFAKFAFAF]
MIC [7]: 5.28 µM (≈ 16 µg/mL)
MIC [8]: 5.28 µM (≈ 16 µg/mL)
MIC [9]: 10.6 µM (≈ 32 µg/mL)
MIC [10]: 10.6 µM (≈ 32 µg/mL)
MIC [4]: 10.6 µM (≈ 32 µg/mL)
MIC [11]: 10.6 µM (≈ 32 µg/mL)
MIC [12]: 5.28 µM (≈ 16 µg/mL)
MIC [13]: 10.6 µM (≈ 32 µg/mL)

Structure (SMILES): CC(C)C[C@H](NC(=O)[C@H](CCCN=C(N)N)NC(=O)[C@H](CCCN=C(N)N)NC(=O)[C@H](CC(C)C)NC(=O)[C@H](CCCN=C(N)N)NC(=O)[C@H](CCCN=C(N)N)NC(=O)[C@H](CCCN=C(N)N)NC(=O)[C@H](Cc1c[nH]c2ccccc12)NC(=O)[C@H](Cc1c[nH]c2ccccc12)NC(=O)[C@H](CCCN=C(N)N)NC(=O)[C@H](CCCN=C(N)N)NC(=O)[C@H](CCCN=C(N)N)NC(=O)[C@H](CC(C)C)NC(=O)[C@H](CCCN=C(N)N)NC(=O)[C@H](CCCN=C(N)N)NC(=O)[C@@H](N)CC(C)C)C(N)=O [LRRLRRRWWRRRLRRL]
MIC [14]: 6.65 µM (≈ 16 µg/mL)
MIC [15]: 13.3 µM (≈ 32 µg/mL)
MIC [16]: 4.7 µM (≈ 11.3 µg/mL)
MIC [17]: 6.65 µM (≈ 16 µg/mL)
MIC [18]: 3.33 µM (≈ 8 µg/mL)
MIC [19]: 6.65 µM (≈ 16 µg/mL)
MIC [20]: 6.65 µM (≈ 16 µg/mL)
MIC [21]: 6.65 µM (≈ 16 µg/mL)
MIC [22]: 3.33 µM (≈ 8 µg/mL)
MIC [23]: 3.33 µM (≈ 8 µg/mL)
